Patent EP1201248A2, “Combination therapy of angiotensin converting enzyme inhibitor, side-effect reduced amount of aldosterone antagonist and diuretic for treatment of cardiovascular disease” (priority 1995, dated 1996)

Assays:
[1] = spironolactone 50 mg/day to 100 mg/day (average 73 mg/day) and captopril; 90-patient study; cited from earlier work
[2] = cited from earlier work
[3] = spironolactone 100 mg/day coadministered with an ACE inhibitor; congestive heart failure; cited from earlier work
[4] = Human clinical trial of ACE inhibitor, spironolactone and loop diuretic: clinical laboratory values and neurohormones
[5] = Human clinical trial of ACE inhibitor, spironolactone and loop diuretic: weight, vital signs and cardiac assessments; format: in vivo, humans; details: for Supine diastolic BP, Mean Change from Baseline to Week 12 / Supine pulse, Mean Change from Baseline to Week 12 / Supine systolic BP, Mean Change from Baseline to Week 12 / Weight, Mean Change from Baseline to Week 12: with stable ACE inhibitor and loop diuretic, spread in parentheses
Text: Concurrent medication within the past 30 days. • 2. 12-lead ECG • 3. […] Signs and symptoms within the past 30 days.
All statistical methods were two-sided.

[6] = Human clinical trial of ACE inhibitor, spironolactone and loop diuretic: adverse events, hyperkalemia incidence, hospitalizations, deaths; details: patients previously at the 50 mg dose

CC(=O)S[C@@H]1CC2=CC(=O)CC[C@]2(C)[C@H]2CC[C@@]3(C)[C@@H](CC[C@@]34CCC(=O)O4)[C@H]12 [Spironolactone, 17-hydroxy-7a-mercapto-3-oxo-17a-pregn-4-ene-21-carboxylic acid γ-lactone acetate]
control of refractory CHF [1]: effective to control refractory CHF without serious incidents of hyperkalemia
fibrosis in hypertensive rats ([2]; cohort treated with spironolactone sub-cutaneously, side-by-side with a captopril cohort): found to prevent fibrosis in the hypertensive-rat cohort
fibrosis in animal models ([2]; irrespective of left ventricular hypertrophy and hypertension): shown to prevent fibrosis in animal models
patients in whom treatment was highly effective [3]: 13 of 16
PRA, change from baseline, dose-response ([4]; Day 9, Week 4 and Week 12 (P ≤0.001)): greater increases in PRA
Urinary aldosterone excretion, change from baseline, dose response ([4]; Week 12 (p = 0.002)): Greater increases were seen at higher doses
N-Terminal Atrial Natriuretic Factor (ANF), change from baseline ([4]; all active treatments, all treatment visits): decreases from baseline at all treatment visits
serum potassium, change from baseline, dose-response ([4]; all treatment period visits (p <0.001)): larger increases in potassium
mean systolic and diastolic blood pressure, change ([5]; 25 mg, 50 mg and 75 mg groups, all visits, standing and supine): decreases in mean systolic and diastolic blood pressure
body weight, change from baseline ([5]; 75 mg dose group, Day 9 and Week 4, not observed at later visits): more weight loss than other patients
sodium retention score, dose response ([5]; Day 9 (p = 0.019), not seen at later visits (p >0.20)): higher doses showing more reduction in sodium retention score
changes in loop diuretic therapy ([5]; Week 8 (p = 0.004), compared to the placebo group, not observed at Week 12): more patients on the higher doses of spironolactone had decreases in the loop diuretic dose
Supine diastolic BP, Mean Change from Baseline to Week 12 ([5]; spironolactone 25 mg/d): -2.74 ( 9.57)
Supine pulse, Mean Change from Baseline to Week 12 ([5]; spironolactone 25 mg/d): -1.40(10.00) BPM
Supine systolic BP, Mean Change from Baseline to Week 12 ([5]; spironolactone 25 mg/d): -4.46(13.97)
Weight, Mean Change from Baseline to Week 12 ([5]; spironolactone 25 mg/d): -0.16 (3.02)
Supine diastolic BP, Mean Change from Baseline to Week 12 ([5]; spironolactone 50 mg/d): -5.11(11.11)
Supine pulse, Mean Change from Baseline to Week 12 ([5]; spironolactone 50 mg/d): -3.21(11.27) BPM
Supine systolic BP, Mean Change from Baseline to Week 12 ([5]; spironolactone 50 mg/d): -7.04(15.83)
Weight, Mean Change from Baseline to Week 12 ([5]; spironolactone 50 mg/d): 0.62 (2.05)
Supine diastolic BP, Mean Change from Baseline to Week 12 ([5]; spironolactone 75 mg/d): -5.91 (9.05)
Supine pulse, Mean Change from Baseline to Week 12 ([5]; spironolactone 75 mg/d): -1.07(13.79) BPM
Supine systolic BP, Mean Change from Baseline to Week 12 ([5]; spironolactone 75 mg/d): -5.68(15.62)
Weight, Mean Change from Baseline to Week 12 ([5]; spironolactone 75 mg/d): -0.81 (2.70)
NYHA Class, improvement ([5]; spironolactone groups vs placebo group): the difference was not statistically significant
deaths within 30 days after the study was completed [6]: Three patients died
